# Test results published in patent publication US11672811B2, “Materials and methods for suppressing and/or treating bone related diseases and symptoms” (Indiana University Research and Technology Corporation, priority 2017, dated 2023).
# Square brackets hold non-standard residues; d marks the D form. Peptide text beside a SMILES is read from it. * marks the point of attachment. ξ: configuration not given here. Cbz = O=C(OCc1ccccc1)*; ξL = CC(C)CC(N)C(=O)O
# B1: iPTH: daily injections of PTH (parathyroid hormone) (protein, UniProt P01270 32-115, looked up)
# Parathyroid hormone: SVSEIQLMHNLGKHLNSMERVEWLRKKLQDVHNFVALGAPLAPRDAGSQRPRKKEDNVLVESHEKSLGEADKADVNVLTKAKSQ
# modifications: Parathyroid hormone
# What was measured:
# [1] = test system: Notch target gene expression (Hes1); assay: Notch target gene expression in 5TGM1 myeloma cells in vitro; type: cell-based; conditions: for inhibition of Notch target gene expression: compounds pre-incubated at low pH to mimic acidic conditions in resorption sites, myeloma cells; for Notch target gene expression (Hes1-Hey1): in vitro, 5TGM1 myeloma cells, not pre-incubated
# From the text: FIG. 1A. Graphs illustrating the effect on Notch target gene expression. In vitro, the control unconjugated GSI decreased Notch target gene expression (Hes1-Hey1) but BT-GSI-XII had no effect.
# FIG. 1B. A graph illustrating the effect on Notch target gene expression.
# (§1) Referring now to FIG. 1A, the control unconjugated GSI decreased Notch target gene expression (Hes1) in 5TGM1 myeloma cells, but BT-GSI-XII had no effect in vitro. […] (FIG. 1E).
# Hes1/5 expression = assay: Ex vivo whole bone organ cultures, Hes1/5 expression; type: cell-based; conditions: compounds non-pre-incubated
# From the text: FIG. 1C. A schematic drawing illustrating an exemplary ex vivo system.
# as §1
# [2] = test system: normal 4-month old female mice; assay: In vivo administration of BT-GSI-XII to normal mice: tolerability, skin, gut toxicity biomarker
# [3] = test system: normal 4-month old female mice; assay: In vivo administration of BT-GSI-XII to normal mice: BMD, microCT, serum bone markers, osteoclasts/osteoblasts, bone cytokine and osteoblast marker mRNA
# From the text: Daily injections of PTH (iPTH) are thought to cause bone anabolism by increasing osteoblast number and function. However, iPTH can also increase bone resorption, which can limit bone gain. iPTH activates Notch signaling in osteocytes; and bone-targeted Notch inhibition using a γ-secretase inhibitor (GSI) conjugated to an alendronate-modified bone-targeting molecule (BT-GSI) decreases Notch signaling in bone, and reduces CTX (−40%) while preserving bone formation, leading to increases in BMD (4-7%) and cancellous bone volume (BV/TV; 30%).
# Notch target genes = assay: Notch target gene mRNA in bone, brain and gut of BT-GSI treated mice; type: in vivo; conditions: compared to vehicle-treated mice
# From the text: FIG. 2A. Graphs illustrating the effect on Notch target genes.
# FIG. 2B. Graphs illustrating the effect on Notch target genes.
# as §1
# 4-mo-old mice = assay: Co-administration of BT-GSI with daily PTH injections (iPTH) in mice: bone mass, resorption and formation; type: in vivo
# Description: (§2) To investigate whether a combination of iPTH (anabolic) and BT-GSI (anti-catabolic) increases bone mass to a higher extent than either agent alone, BT-GSI (5 mg/kg, 3×/wk) or saline was co-administered with iPTH (100 ng/g/day) or vehicle for 2 wks to 4-mo-old mice (n=10/group).
# (§3) No changes were found in M-Csf expression. Additionally, unconjugated GSI reduced Rankl-induced osteoclast differentiation in vitro with an EC50˜0.1 μM (FIG. 12D). Further, the bone-targeting molecule alone required a dose 10 times higher than GSI to decreased osteoclastogenesis. Referring now to FIG. 13, co-administration of BT-GSI decreased iPTH-induced elevated serum P1NP (e.g., about 30% decrease); however, the co-administration of BT-GSI maintained the iPTH-induced elevated bone formation rate (20%) and osteoblast number/surface (20%) in cancellous bone (FIG. 13B-C). Further, mice receiving iPTH alone or combined with BT-GSI induced elevated mRNA levels of Alp1, Runx2, Bglap, and Wnt target genes, and reduced mRNA level of Sost in bone (FIG. 13 D-E).
# [4] = test system: Notch target genes Hes1/5/7 and Hey1/L; assay: Co-administration of BT-GSI with iPTH in mice: Notch target gene expression in bone, brain, gut; type: in vivo; conditions: 2 wks
# Description: as §2
# [5] = test system: Rankl-induced osteoclast differentiation; assay: Rankl-induced osteoclast differentiation in vitro; type: cell-based; conditions: read-out: EC50, reduction of Rankl-induced osteoclast differentiation
# Description: as §3
# [6] = 5 μg/g, 3×wk, 2 weeks, normal 4-month old female mice
# [7] = serum, 5 μg/g, 3×wk, 2 weeks, mice
# [8] = BT-GSI 5 mg/kg 3×/wk co-administered with iPTH, 2 wks
# [9] = BT-GSI co-administered with iPTH
# [10] = BT-GSI co-administered with iPTH, cancellous bone
# [11] = single agent (iPTH 100 ng/g/day or BT-GSI 5 mg/kg 3×/wk)
molecule,measurement,setting,value
CC[C@H](C)[C@H](NC(=O)OCc1ccccc1)C(=O)NC(/C=N/N(C)CCCC(=O)NC(P(=O)(O)O)P(=O)(O)O)CC(C)C (stereo partly drawn) [BT-GSI-XII],inhibition of Notch target gene expression,[1],equal inhibition
same,Notch target gene expression (Hes1-Hey1),[1],no effect
same,Hes1/5 expression,Hes1/5 expression,similarly decreased
same,skin issues,[2]; [6],no skin issues were observed
same,tolerability,[2]; [6],well tolerated
same,"Apsidin expression in the gut, a biomarker of gastrointestinal toxicity","[2]; treated mice vs vehicle, gut",did not increase
same,higher femoral BMD compared to control mice,"[3]; 5 μg/g, 3×wk, 2 weeks, mice",4%
same,higher spinal BMD compared to control mice,"[3]; 5 μg/g, 3×wk, 2 weeks, mice",7%
same,higher total BMD compared to control mice,"[3]; 5 μg/g, 3×wk, 2 weeks, mice",3%
same,increased cancellous bone volume (BV/TV) compared to vehicle-treated mice,[3]; microCT analysis,25%
same,increased trabecular thickness compared to vehicle-treated mice,[3]; microCT analysis,10%
same,increased cancellous bone volume (BV/TV) compared to vehicle-treated mice,"[3]; microCT analysis, listed as BT-GSI",30%
same,circulating levels of the bone formation marker P1NP,[3]; [7],did not affect
same,"decrease of serum CTX, a marker of bone resorption",[3]; [7],40%
same,increases in BMD,"[3]; summary statement, sites not named",4-7%
same,bone formation and mineral apposition rates,[3]; treated mice,remained unchanged
same,decrease in the bone surface covered by osteoclasts compared to control mice,[3]; treated mice,50%
same,number of osteoblasts,[3]; treated mice,remained unchanged
same,Opg mRNA expression in bone,[3]; treated mice vs vehicle,increased
same,Rankl/Opg ratio in bone,[3]; treated mice vs vehicle,decreasing
same,Opg mRNA expression in bone,"[3]; treated mice vs vehicle, listed as BT-GSI",upregulated
same,"expression of osteoblast markers, including Wnt target genes and the osteocyte-derived Sost/Sclerostin","[3]; treated mice, bone",remained unchanged
same,bone formation and mineral apposition rates,"[3]; treated mice, listed as BT-GSI",preserving
same,Notch target gene mRNA expression in brain or gut,"Notch target genes; brain, gut",not in brain or gut
same,"Notch target gene (Hey2, Hes5, Hes7, HeyL) mRNA expression in bone",Notch target genes; whole bone preparations,decreases
same,increase in femoral BMD,4-mo-old mice; [8],17%
same,increase in spinal BMD,4-mo-old mice; [8],7%
same,increase in total BMD,4-mo-old mice; [8],10%
same,additional increase in cancellous BV/TV (L4 and distal femur) compared to the iPTH-induced increase,4-mo-old mice; [9],25%
same,additional increase in trabecular thickness compared to the iPTH-induced increase,4-mo-old mice; [9],25%
same,decrease of iPTH-induced elevated serum P1NP,4-mo-old mice; [9],about 30%
same,effect on iPTH-induced increase in cortical bone area,4-mo-old mice; [9],did not alter
same,iPTH-induced elevated Rankl/Opg expression ratio in bone,4-mo-old mice; [9],remained unchanged
same,serum CTX level,4-mo-old mice; [9],less than those exhibited in control mice
same,iPTH-induced elevated bone formation rate,4-mo-old mice; [10],maintained
same,iPTH-induced elevated osteoblast number/surface,4-mo-old mice; [10],maintained
same,osteoclast number/surface level,4-mo-old mice; [10],less than those exhibited in control mice
same,mRNA level of Sost in bone,4-mo-old mice; iPTH combined with BT-GSI,reduced
same,"mRNA levels of Alp1, Runx2, Bglap, and Wnt target genes in bone",4-mo-old mice; iPTH combined with BT-GSI,elevated
same,iPTH-induced elevated expression of Hes1/5/7 and Hey1/L in bone,[4]; BT-GSI 5 mg/kg 3×/wk co-administered with iPTH 100 ng/g/day,decreased the iPTH-induced elevated expression of Hes1/5/7 and Hey1/L to a level comparable to the control mice
same,expression of Notch target genes in brain or gut,[4]; [11],remained unchanged
same,expression of Notch target genes in brain or gut,[4]; the combination of iPTH and BT-GSI,remained unchanged
"CC[C@H](C)[C@H](NC(=O)OCc1ccccc1)C(=O)N[C@H](C=O)CC(C)C [GSI-XII, reference compound] (Cbz-Ile-Leu-aldehyde)",Notch target gene expression (Hes1-Hey1),[1],decreased
same,EC50,[5],~100 nM
"CC[C@H](C)[C@H](NC(=O)OCc1ccccc1)C(=O)NC(C=O)CC(C)C (stereo partly drawn) [GSI-XII, reference compound] (Cbz-Ile-[ξL]-aldehyde)",inhibition of Notch target gene expression,[1],equal inhibition
same,Hes1/5 expression,Hes1/5 expression,similarly decreased
B1,increase in femoral BMD,"4-mo-old mice; iPTH 100 ng/g/day alone, 2 wks",13%
same,increase in total BMD,"4-mo-old mice; iPTH 100 ng/g/day alone, 2 wks",7%
same,spinal BMD change,"4-mo-old mice; iPTH 100 ng/g/day alone, 2 wks",0%
same,iPTH-induced elevated Rankl/Opg expression ratio in bone,4-mo-old mice; iPTH alone,1.5 fold
same,iPTH-induced elevated serum CTX,4-mo-old mice; iPTH alone,30%
same,iPTH-induced increase in cortical bone area,4-mo-old mice; iPTH alone,8%
same,mRNA level of Sost in bone,4-mo-old mice; iPTH alone,reduced
same,"mRNA levels of Alp1, Runx2, Bglap, and Wnt target genes in bone",4-mo-old mice; iPTH alone,elevated
same,serum P1NP,4-mo-old mice; iPTH alone,elevated
same,iPTH-induced elevated bone formation rate,"4-mo-old mice; iPTH alone, cancellous bone",20%
same,iPTH-induced elevated osteoblast number/surface,"4-mo-old mice; iPTH alone, cancellous bone",20%
same,iPTH-induced elevated osteoclast number/surface,"4-mo-old mice; iPTH alone, cancellous bone",25%
same,expression of the Notch target genes Hes1/5/7 and Hey1/L in bone,[4]; iPTH 100 ng/g/day alone,increased
same,expression of Notch target genes in brain or gut,[4]; [11],remained unchanged
